Marks after values point to notes of the source that are not given here.
How the values were obtained:
[1] = tested on: fibroblasts from patients affected by different lysosomal storage diseases; assay: Determination of glycosaminoglycans (GAGs), 1,9-dimethylmethylene blue (DMB) assay; format: cell-based, human; details: for Decrease of GAGs (%), Median: Table 5 median over the patients' fibroblasts; for Decrease of GAGs (%), Median / Decrease of GAGs (%): 72 h; for decrease of glycosaminoglycans (in words): fibroblasts from seven patients, 50 and 100 μM
Method: (§1) Fibroblasts from thirteen patients affected by seven different lysosomal storage diseases (Fabry, Gaucher, Hurler, Niemann-Pick type A/B, Sanfilippo A, Sanfilippo B and Tay-Sachs) were cultured in DMEM (Dulbecco's modified Eagles medium) with 10% fetal bovine serum and in the presence of antibiotics (penicillin and streptomycin), at 37° C. with 5% CO2. All reagents were purchased from PAA Laboratories (Velizy-Villacoublay, France). The fibroblasts of the patients were selected on the basis of availability of fibroblasts and measurable residual activity. The use of human samples was approved by the Ethical Committee of Hospital Clinic, Barcelona
Glycobiology. […] The fibroblasts were cultured in triplicate in 6-well plates and they were harvested 72 hours after treatment. DMB absorbance was measured in duplicate at 656 nm with a microplate reader (POLARstar Omega, BMG LABTECH, Offenburg, Germany).
Fibroblasts from three patients affected by Sanfilippo B disease and one patient affected by Hurler disease were treated with increasing concentrations of bicalutamide (racemic mixture at increasing concentrations of 0.01, 0.1, 1, 10 and 100 μM). Glycosaminoglycans (GAGs) levels were quantified with the 1,9-dimethylmethylene blue (DMB) assay.
Fibroblasts from seven patients affected by different diseases derived from lysosomal storage (three Sanfilippo B disease patients with different genotypes, one Sanfilippo A disease patient, one Tay-Sachs disease patient, one Niemann-Pick type A/B disease patient and one Hurler disease patient) were independently treated with different concentrations of (R)- and (S)-bicalutamide (50 and 100 μM).

[2] = tested on: fibroblasts from patients affected by different lysosomal storage diseases; assay: Cell viability, MTT assay; format: cell-based, human; set-up: key to Decrease of Cell Viability (%): N.S.: non significant decrease; details: for Decrease of Cell Viability (%): 72 h
Method: as §1
Fibroblasts of early passage (between 5 and 9 passages) were plated in 6- or 24-well plates depending on the test and were treated for 72 hours with increasing concentrations (10 nmol/L, 100 nmol/L, 1 μmol/L, 10 μmol/L, 50 μmol/L and 100 μmol/L) of bicalutamide (Sigma-Aldrich, St. Louis, USA) and (R)- and (S)-bicalutamide (Toronto Research Chemicals Inc., Toronto (Ontario), Canada). Cell viability was evaluated in each cell line for each concentration using the 3-[4,5-dimethylthiazol-2-yl]-2,5-diphenyl tetrazolium bromide (MTT) assay (Sigma-aldrich, St. Louis, USA) described by Sumantran V. N. Cellular chemosensitivity assays: an overview. Methods Mol. Biol. (2011), 731, 219-236.
Fibroblasts from thirteen patients with different lysosomal storage diseases (four patients affected by Sanfilippo B disease patients with different genotypes, three Sanfilippo A disease patients with different genotypes, two Tay-Sachs disease patients with the same genotype, one Gaucher disease patient, one Niemann-PickA/B disease patient, one Hurler disease patient and one Fabry disease patient) were independently treated with different concentrations of (R)- and (S)-bicalutamide (50 and 100 μM). Cell viability was evaluated for each treatment in each cell line using the MTT assay.

androgen receptors = details: cited from earlier work
[3] = Table 5 patient 1, Sanfilippo B fibroblasts, 50 μM
[4] = Table 5 patient 1, Sanfilippo B fibroblasts, 100 μM
[5] = Table 5 patient 2, Sanfilippo B fibroblasts, 50 μM
[6] = Table 5 patient 2, Sanfilippo B fibroblasts, 100 μM
[7] = Table 5 patient 3, Sanfilippo B fibroblasts, 50 μM
[8] = Table 5 patient 3, Sanfilippo B fibroblasts, 100 μM
[9] = Table 5 patient 4, Sanfilippo A fibroblasts, 50 μM
[10] = Table 5 patient 4, Sanfilippo A fibroblasts, 100 μM
[11] = Table 5 patient 5, Tay-Sachs fibroblasts, 50 μM
[12] = Table 5 patient 5, Tay-Sachs fibroblasts, 100 μM
[13] = Table 5 patient 6, Niemann-Pick AB fibroblasts, 50 μM
[14] = Table 5 patient 6, Niemann-Pick AB fibroblasts, 100 μM
[15] = Table 5 patient 7, Hurler fibroblasts, 50 μM
[16] = Table 5 patient 7, Hurler fibroblasts, 100 μM
[17] = Table 3 patient 1, Sanfilippo B fibroblasts, 50 μM
[18] = Table 3 patient 1, Sanfilippo B fibroblasts, 100 μM
[19] = Table 3 patient 2, Sanfilippo B fibroblasts, 50 μM
[20] = Table 3 patient 2, Sanfilippo B fibroblasts, 100 μM
[21] = Table 3 patient 3, Sanfilippo B fibroblasts, 50 μM
[22] = Table 3 patient 3, Sanfilippo B fibroblasts, 100 μM
[23] = Table 3 patient 4, Sanfilippo B fibroblasts, 50 μM
[24] = Table 3 patient 4, Sanfilippo B fibroblasts, 100 μM
[25] = Table 3 patient 5, Sanfilippo A fibroblasts, 50 μM
[26] = Table 3 patient 5, Sanfilippo A fibroblasts, 100 μM
[27] = Table 3 patient 6, Sanfilippo A fibroblasts, 50 μM
[28] = Table 3 patient 6, Sanfilippo A fibroblasts, 100 μM
[29] = Table 3 patient 7, Sanfilippo A fibroblasts, 50 μM
[30] = Table 3 patient 7, Sanfilippo A fibroblasts, 100 μM
[31] = Table 3 patient 8, Tay-Sachs fibroblasts, 50 μM
[32] = Table 3 patient 8, Tay-Sachs fibroblasts, 100 μM
[33] = Table 3 patient 9, Tay-Sachs fibroblasts, 50 μM
[34] = Table 3 patient 9, Tay-Sachs fibroblasts, 100 μM
[35] = Table 3 patient 10, Gaucher fibroblasts, 50 μM
[36] = Table 3 patient 10, Gaucher fibroblasts, 100 μM
[37] = Table 3 patient 11, Niemann-Pick AB fibroblasts, 50 μM
[38] = Table 3 patient 11, Niemann-Pick AB fibroblasts, 100 μM
[39] = Table 3 patient 12, Hurler fibroblasts, 50 μM
[40] = Table 3 patient 12, Hurler fibroblasts, 100 μM
[41] = Table 3 patient 13, Fabry fibroblasts, 50 μM
[42] = Table 3 patient 13, Fabry fibroblasts, 100 μM

## C[C@@](O)(CS(=O)(=O)c1ccc(F)cc1)C(=O)Nc1ccc(C#N)c(C(F)(F)F)c1 [(S)-BICALUTAMIDE (1), (2S)-N-[4-cyano-3-(trifluoromethyl)phenyl]-3-[(4-fluorophenyl)sulfonyl]-2-hydroxy-2-methylpropanamide]
[1]; 50 μM
  Decrease of GAGs (%), Median: 18* %
[1]; 100 μM
  Decrease of GAGs (%), Median: 38* %
[1]; [3]
  Decrease of GAGs (%): N.S.
[1]; [4]
  Decrease of GAGs (%): 22* %
[1]; [5]
  Decrease of GAGs (%): 18* %
[1]; [6]
  Decrease of GAGs (%): 39* %
[1]; [7]
  Decrease of GAGs (%): 15* %
[1]; [8]
  Decrease of GAGs (%): 20* %
[1]; [9]
  Decrease of GAGs (%): 27.4* %
[1]; [10]
  Decrease of GAGs (%): 56* %
[1]; [11]
  Decrease of GAGs (%): 31* %
[1]; [12]
  Decrease of GAGs (%): 60* %
[1]; [13]
  Decrease of GAGs (%): 24* %
[1]; [14]
  Decrease of GAGs (%): 38* %
[1]; [15]
  Decrease of GAGs (%): 0%
[1]; [16]
  Decrease of GAGs (%): 0%
[1]
  decrease of glycosaminoglycans (in words): significant and dose-dependent decrease of glycoaminoglicans
[2]; [17]
  Decrease of Cell Viability (%): 0%
[2]; [18]
  Decrease of Cell Viability (%): 0%
[2]; [19]
  Decrease of Cell Viability (%): 0%
[2]; [20]
  Decrease of Cell Viability (%): 0%
[2]; [21]
  Decrease of Cell Viability (%): 0%
[2]; [22]
  Decrease of Cell Viability (%): 0%
[2]; [23]
  Decrease of Cell Viability (%): 0%
[2]; [24]
  Decrease of Cell Viability (%): N.S.
[2]; [25]
  Decrease of Cell Viability (%): 0%
[2]; [26]
  Decrease of Cell Viability (%): 0%
[2]; [27]
  Decrease of Cell Viability (%): 0%
[2]; [28]
  Decrease of Cell Viability (%): 0%
[2]; [29]
  Decrease of Cell Viability (%): 0%
[2]; [30]
  Decrease of Cell Viability (%): 0%
[2]; [31]
  Decrease of Cell Viability (%): 0%
[2]; [32]
  Decrease of Cell Viability (%): 0%
[2]; [33]
  Decrease of Cell Viability (%): 0%
[2]; [34]
  Decrease of Cell Viability (%): N.S.
[2]; [35]
  Decrease of Cell Viability (%): N.S.
[2]; [36]
  Decrease of Cell Viability (%): N.S.
[2]; [37]
  Decrease of Cell Viability (%): N.S.
[2]; [38]
  Decrease of Cell Viability (%): N.S.
[2]; [39]
  Decrease of Cell Viability (%): 0%
[2]; [40]
  Decrease of Cell Viability (%): 0%
[2]; [41]
  Decrease of Cell Viability (%): 0%
[2]; [42]
  Decrease of Cell Viability (%): 0%
[2]; thirteen fibroblast cultures, 50 and 100 μM
  decrease of cell viability (in words): did not show any significant decrease of cell viability
Androgen receptors
  anti-androgenic activity: inactive

## C[C@@](O)(CS(=O)(=O)c1ccc(F)cc1)C(=O)Nc1ccc(C#N)c(C(F)(F)F)c1 (single isomer, unassigned) [(R)-BICALUTAMIDE (2)]
[1]; 50 μM
  Decrease of GAGs (%), Median: 0%
[1]; 100 μM
  Decrease of GAGs (%), Median: 25* %
[1]; [3]
  Decrease of GAGs (%): N.S.
[1]; [4]
  Decrease of GAGs (%): 25* %
[1]; [5]
  Decrease of GAGs (%): N.S.
[1]; [6]
  Decrease of GAGs (%): N.S.
[1]; [7]
  Decrease of GAGs (%): 0%
[1]; [8]
  Decrease of GAGs (%): 33* %
[1]; [9]
  Decrease of GAGs (%): 0%
[1]; [10]
  Decrease of GAGs (%): 0%
[1]; [11]
  Decrease of GAGs (%): N.S.
[1]; [12]
  Decrease of GAGs (%): 45* %
[1]; [13]
  Decrease of GAGs (%): N.S.
[1]; [14]
  Decrease of GAGs (%): 41* %
[1]; [15]
  Decrease of GAGs (%): 0%
[1]; [16]
  Decrease of GAGs (%): 16* %
[1]
  decrease of glycosaminoglycans (in words): a decrease of GAGs levels in some cases, but with a lower intensity and not universally
[2]; [17]
  Decrease of Cell Viability (%): 20* %
[2]; [18]
  Decrease of Cell Viability (%): 37* %
[2]; [19]
  Decrease of Cell Viability (%): 10* %
[2]; [20]
  Decrease of Cell Viability (%): 26* %
[2]; [21]
  Decrease of Cell Viability (%): 40* %
[2]; [22]
  Decrease of Cell Viability (%): 52* %
[2]; [23]
  Decrease of Cell Viability (%): 0%
[2]; [24]
  Decrease of Cell Viability (%): 25* %
[2]; [25]
  Decrease of Cell Viability (%): N.S.
[2]; [26]
  Decrease of Cell Viability (%): N.S.
[2]; [27]
  Decrease of Cell Viability (%): 0%
[2]; [28]
  Decrease of Cell Viability (%): 0%
[2]; [29]
  Decrease of Cell Viability (%): 0%
[2]; [30]
  Decrease of Cell Viability (%): 0%
[2]; [31]
  Decrease of Cell Viability (%): 0%
[2]; [32]
  Decrease of Cell Viability (%): 0%
[2]; [33]
  Decrease of Cell Viability (%): 0%
[2]; [34]
  Decrease of Cell Viability (%): N.S.
[2]; [35]
  Decrease of Cell Viability (%): 0%
[2]; [36]
  Decrease of Cell Viability (%): 24* %
[2]; [37]
  Decrease of Cell Viability (%): 0%
[2]; [38]
  Decrease of Cell Viability (%): 0%
[2]; [39]
  Decrease of Cell Viability (%): 0%
[2]; [40]
  Decrease of Cell Viability (%): 0%
[2]; [41]
  Decrease of Cell Viability (%): 0%
[2]; [42]
  Decrease of Cell Viability (%): 0%
Androgen receptors
  anti-androgenic activity: exclusively found in the (R)-enantiomer
